# Test results taken from patent US20230279025A1, “KRAS G12D INHIBITORS” (Mirati Therapeutics, Inc., priority 2020, published 2023).
# Molecular target: KRas G12D (Homo sapiens (Human), UniProt P01116, G12D)
# Experiment: KRas G12D Binding Assay (TR-FRET displacement of Cy5 labelled tracer)
# Conditions: GDP-loaded KRAS G12D (amino acids 1:169), 60 minute incubation at 22° C.
# Experimental: After a 60 minute incubation at 22° C., the reaction was measured using a PerkinElmer EnVision multimode plate reader via TR-FRET dual wavelength detection, and the percent of control (POC) calculated using a ratiometric emission factor. […] The POC values were fit to a 4-parameter logistic curve and the IC50 value was determined as the concentration where the curve crosses 50 POC.
# ND stands for “not determined.”
# Sequence of KRas G12D (P01116 other isoform, or with tags, fused parts or gaps G12D): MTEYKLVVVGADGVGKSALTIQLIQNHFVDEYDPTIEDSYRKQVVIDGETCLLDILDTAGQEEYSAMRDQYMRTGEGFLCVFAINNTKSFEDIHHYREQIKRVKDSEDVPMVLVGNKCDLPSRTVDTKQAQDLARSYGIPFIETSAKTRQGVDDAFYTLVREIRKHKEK
row,SMILES,IC50
1,"O=C(OC[C@H]1CC[C@@]2(COc3nc(N4CC5CCC(C4)N5)c4cnc(-c5cccc6cccc(Cl)c56)c(F)c4n3)CCCN12)N1CCCCC1 [Example 444, ((3R,7aR)-7a-(((4-(3,8-diazabicyclo[3.2.1]octan-3-yl)-7-(8-chloronaphthalen-1-yl)-8-fluoropyrido[4,3-d]pyrimidin-2-yl)oxy)methyl)hexahydro-1H-pyrrolizin-3-yl)methyl piperidine-1-carboxylate]",5.5 nM
2,"COCc1cccc2cccc(-c3ncc4c(N5C[C@H]6CC[C@@H](C5)N6)nc(OC[C@@]56CCCN5C[C@H](F)C6)nc4c3F)c12 [Example 423, 4-((1R,5S)-3,8-diazabicyclo[3.2.1]octan-3-yl)-8-fluoro-2-(((2R,7aS)-2-fluorohexahydro-1H-pyrrolizin-7a-yl)methoxy)-7-(8-(methoxymethyl)naphthalen-1-yl)pyrido[4,3-d]pyrimidine]",238 nM
3,"Fc1ccc2cccc(-c3ncc4c(N5C[C@H]6CC[C@@H](C5)N6)nc(OCC56CCCN5CCC6)nc4c3F)c2c1 [Example 460, 4-((1R,5S)-3,8-diazabicyclo[3.2.1]octan-3-yl)-8-fluoro-7-(7-fluoronaphthalen-1-yl)-2-((hexahydro-1H-pyrrolizin-7a-yl)methoxy)pyrido[4,3-d]pyrimidine]",0.027 nM
4,"Fc1c(-c2ccccc2C(F)(F)F)ncc2c(N3C[C@H]4CC[C@@H](C3)N4)nc(OCC34CCCN3CCC4)nc12 [Example 370, 4-((1R,5S)-3,8-diazabicyclo[3.2.1]octan-3-yl)-8-fluoro-2-((tetrahydro-1H-pyrrolizin-7a(5H)-yl)methoxy)-7-(2-(trifluoromethyl)phenyl)pyrido[4,3-d]pyrimidine]",86.1 nM
5,"CC(C)(C)[Si](C)(C)OCC1CCC2(COc3nc(N4C[C@H]5CC[C@@H](C4)N5)c4cnc(-c5cccc6cccc(Cl)c56)c(F)c4n3)CCCN12 (stereo partly drawn) [Example 64, 4-((1R,5S)-3,8-diazabicyclo[3.2.1]octan-3-yl)-2-((3-(((tert-butyldimethylsilyl)oxy)methyl)tetrahydro-1H-pyrrolizin-7a(5H)-yl)methoxy)-7-(8-chloronaphthalen-1-yl)-8-fluoropyrido[4,3-d]pyrimidine]",3.3 nM
6,"Cc1ccc2[nH]ncc2c1-c1ncc2c(N3CC4CCC(C3)N4)nc(OCC34CCCN3C[C@H](F)C4)nc2c1F (mixture of isomers) [Example 331, 4-((1R,5S)-3,8-diazabicyclo[3.2.1]octan-3-yl)-8-fluoro-2-((2-fluorotetrahydro-1H-pyrrolizin-7a(5H)-yl)methoxy)-7-(5-methyl-1H-indazol-4-yl)pyrido[4,3-d]pyrimidine (racemic, trans)]",114 nM
7,"Oc1c(F)cc(F)c(-c2ncc3c(N4C[C@H]5CC[C@@H](C4)N5)nc(OCC45CCCN4CCC5)nc3c2F)c1F [Example 350, 3-(4-((1R,5S)-3,8-diazabicyclo[3.2.1]octan-3-yl)-8-fluoro-2-((tetrahydro-1H-pyrrolizin-7a(5H)-yl)methoxy)pyrido[4,3-d]pyrimidin-7-yl)-2,4,6-trifluorophenol]",3820 nM
8,"CC(C)c1c(Cl)cc(O)cc1-c1ncc2c(N3C[C@H]4CC[C@@H](C3)N4)nc(OC[C@@]34CCCN3C[C@H](F)C4)nc2c1F [Example 291, 3-(4-((1R,5S)-3,8-diazabicyclo[3.2.1]octan-3-yl)-8-fluoro-2-(((2R,7aS)-2-fluorohexahydro-1H-pyrrolizin-7a-yl)methoxy)pyrido[4,3-d]pyrimidin-7-yl)-5-chloro-4-isopropylphenol]",1.6 nM
9,"COC[C@H]1CC[C@@]2(COc3nc(N4CC5CCC(C4)N5)c4cnc(-c5cc(O)cc6ccccc56)c(F)c4n3)CCCN12 (stereo in doubt) [Example 389, 4-(4-((1R,5S)-3,8-diazabicyclo[3.2.1]octan-3-yl)-8-fluoro-2-((3-(methoxymethyl)tetrahydro-1H-pyrrolizin-7a(5H)-yl)methoxy)pyrido[4,3-d]pyrimidin-7-yl)naphthalen-2-ol]",1.4 nM
10,"Cc1nccn1CCOc1nc(N2C[C@H]3C[C@@H](O)[C@@H](C2)N3)c2cnc(-c3cccc4cccc(Cl)c34)c(F)c2n1 [Example 167, (1R,5R,6R)-3-(7-(8-chloronaphthalen-1-yl)-8-fluoro-2-(2-(2-methyl-1H-imidazol-1-yl)ethoxy)pyrido[4,3-d]pyrimidin-4-yl)-3,8-diazabicyclo[3.2.1]octan-6-ol]",226 nM
11,"CCc1cccc2cc(O)cc(-c3ncc4c(N5C[C@H]6CC[C@@H](C5)N6)nc(OC[C@]56CCCN5[C@@H](COC(=O)NC)CC6)nc4c3F)c12 [Example 433, ((3R,7aR)-7a-(((4-((1R,5S)-3,8-diazabicyclo[3.2.1]octan-3-yl)-7-(8-ethyl-3-hydroxynaphthalen-1-yl)-8-fluoropyrido[4,3-d]pyrimidin-2-yl)oxy)methyl)hexahydro-1H-pyrrolizin-3-yl)methyl methylcarbamate]",0.9 nM
12,"NC1(COc2nc(N3C[C@H]4CC[C@@H](C3)N4)c3cnc(-c4cccc5cccc(Cl)c45)c(F)c3n2)CCCCC1 [Example 262, 1-(((4-((1R,5S)-3,8-diazabicyclo[3.2.1]octan-3-yl)-7-(8-chloronaphthalen-1-yl)-8-fluoropyrido[4,3-d]pyrimidin-2-yl)oxy)methyl)cyclohexanamine]",2260 nM
13,"Cc1cc(-c2ncc3c(N4C[C@H]5CC[C@@H](C4)N5)nc(OCC45CCCN4CCC5)nc3c2F)c2c(Cl)cccc2c1 [Example 175, 4-((1R,5S)-3,8-diazabicyclo[3.2.1]octan-3-yl)-7-(8-chloro-3-methylnaphthalen-1-yl)-8-fluoro-2-((hexahydro-1H-pyrrolizin-7a-yl)methoxy)pyrido[4,3-d]pyrimidine]",63.8 nM
14,CN1CCC[C@H]1COc1nc(N2CC3CCC(C2)N3)c2cnc(-c3cccc4cccc(C#N)c34)c(F)c2n1 [Example 192],225 nM
15,"CS(=O)(=O)NC[C@H]1CC[C@@]2(COc3nc(N4C[C@H]5CC[C@@H](C4)N5)c4cnc(-c5cccc6cccc(Cl)c56)c(F)c4n3)CCCN12 [Example 420, N-(((3R,7aR)-7a-(((4-((1R,5S)-3,8-diazabicyclo[3.2.1]octan-3-yl)-7-(8-chloronaphthalen-1-yl)-8-fluoropyrido[4,3-d]pyrimidin-2-yl)oxy)methyl)hexahydro-1H-pyrrolizin-3-yl)methyl)methanesulfonamide]",20 nM
16,"O=C1CCC2(COc3nc(N4C[C@H]5CC[C@@H](C4)N5)c4cnc(-c5cccc6cccc(Cl)c56)c(F)c4n3)CCCN12 (stereo partly drawn) [Example 83, 7a-(((4-((1R,5S)-3,8-diazabicyclo[3.2.1]octan-3-yl)-7-(8-chloronaphthalen-1-yl)-8-fluoropyrido[4,3-d]pyrimidin-2-yl)oxy)methyl)hexahydro-3H-pyrrolizin-3-one bis(2,2,2-trifluoroacetate)]",8690 nM
17,"CN1C[C@H](NC(=O)c2ccc(C=O)cc2)C[C@H]1COc1nc(N2C[C@H]3CC[C@@H](C2)N3)c2cnc(-c3cccc4cccc(Cl)c34)c(F)c2n1 [Example 353, N-((3R,5S)-5-(((4-((1R,5S)-3,8-diazabicyclo[3.2.1]octan-3-yl)-7-(8-chloronaphthalen-1-yl)-8-fluoropyrido[4,3-d]pyrimidin-2-yl)oxy)methyl)-1-methylpyrrolidin-3-yl)-4-formylbenzamide]",333 nM
18,"Nc1nccn1CCOc1nc(N2CC3CCC(C2)N3)c2cnc(-c3cccc4cccc(Cl)c34)c(F)c2n1 [Example 178, 1-[2-[7-(8-chloro-1-naphthyl)-4-(3,8-diazabicyclo[3.2.1]octan-3-yl)-8-fluoro-pyrido[4,3-d]pyrimidin-2-yl]oxyethyl]imidazol-2-amine]",105 nM
19,"Oc1cccc2cccc(-c3ncc4c(N5C[C@H]6CC[C@@H](C5)N6)nc(OCC56CCCN5CCC6)nc4c3F)c12 [Example 237, 8-(4-((1R,5S)-3,8-diazabicyclo[3.2.1]octan-3-yl)-8-fluoro-2-((tetrahydro-1H-pyrrolizin-7a(5H)-yl)methoxy)pyrido[4,3-d]pyrimidin-7-yl)naphthalen-1-ol]",500 nM
20,"CC(C)(F)c1ccccc1-c1ncc2c(N3CC4CCC(C3)N4)nc(OC[C@@]34CCCN3C[C@H](F)C4)nc2c1F (stereo in doubt) [Example 407, 4-((1R,5S)-3,8-diazabicyclo[3.2.1]octan-3-yl)-8-fluoro-7-(2-(2-fluoropropan-2-yl)phenyl)-2-((2-fluorotetrahydro-1H-pyrrolizin-7a(5H)-yl)methoxy)pyrido[4,3-d]pyrimidine]",560 nM
21,"CN1C[C@H](NC(=O)c2ccccc2C=O)C[C@H]1COc1nc(N2C[C@H]3CC[C@@H](C2)N3)c2cnc(-c3cccc4cccc(Cl)c34)c(F)c2n1 [Example 355, N-((3R,5S)-5-(((4-((1R,5S)-3,8-diazabicyclo[3.2.1]octan-3-yl)-7-(8-chloronaphthalen-1-yl)-8-fluoropyrido[4,3-d]pyrimidin-2-yl)oxy)methyl)-1-methylpyrrolidin-3-yl)-2-formylbenzamide]",870 nM
22,"Cn1ccc2cccc(-c3ncc4c(N5C[C@H]6CC[C@@H](C5)N6)nc(OCC56CCCN5CCC6)nc4c3F)c21 [Example 446, 4-((1R,5S)-3,8-diazabicyclo[3.2.1]octan-3-yl)-8-fluoro-7-(1-methyl-1H-indol-7-yl)-2-((tetrahydro-1H-pyrrolizin-7a(5H)-yl)methoxy)pyrido[4,3-d]pyrimidine]",357 nM
23,"CC(C)c1c(F)cc(O)cc1-c1ncc2c(N3C[C@H]4CC[C@@H](C3)N4)nc(OC[C@@]34CCCN3C[C@H](F)C4)nc2c1F [Example 290, 3-(4-((1R,5S)-3,8-diazabicyclo[3.2.1]octan-3-yl)-8-fluoro-2-(((2R,7aS)-2-fluorotetrahydro-1H-pyrrolizin-7a(5H)-yl)methoxy)pyrido[4,3-d]pyrimidin-7-yl)-5-fluoro-4-isopropylphenol]",2.1 nM
24,"Cn1ccc(CCOc2nc(N3C[C@H]4CC[C@@H](C3)N4)c3cnc(-c4cccc5cccc(Cl)c45)c(F)c3n2)n1 [Example 145, 4-((1R,5S)-3,8-diazabicyclo[3.2.1]octan-3-yl)-7-(8-chloronaphthalen-1-yl)-8-fluoro-2-(2-(1-methyl-1H-pyrazol-3-yl)ethoxy)pyrido[4,3-d]pyrimidine]",5000 nM
